Test system: not listed separately
Assay: Polarity: interfacial tension toward water;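 also: polarity expressed as oil–water interfacial tension in mN/m, lower values meaning a more polar oil, with medium-polar lipids falling between 20 and 30 mN/m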
Assay type: physicochemical
Conditions: medium-polar lipids
Excerpt: For the purposes of the present invention, lipids are regarded as being polar if their interfacial tension toward water is less than 20 mN/m, and as nonpolar if their interfacial tension toward water is more than 30 mN/m. Lipids with an interfacial tension toward water between 20 and 30 mN/m are generally referred to as medium-polar.

In order of rising Polarity:
1. CCCCCCCC(=O)OCC(COC(=O)CCCCCCC)OC(=O)CCCCCCC [Trivent OCG, Tricaprylin]  20.2 mN/m
2. CCCCCCCCCCCCCCCCCC(=O)OC(C)C [Isopropyl stearate, Isopropyl Stearate]  21.9 mN/m
3. CCCCCCC(CCCC)C(=O)O (stereo not drawn) [Isocarb 12, Butyl Octanoic acid]  22.1 mN/m
4. CCCCCCCCCCCCCC(=O)OCC(CCCCCCCC)CCCCCCCCCC (stereo not drawn) [M.O.D., Octyldodecyl Myristate]  22.1 mN/m
5. CCCCCCCCCCCCCCCC(=O)OCCCCCCCC [Cegesoft C24, Octyl Palmitate]  23.1 mN/m
6. Isotridecyl 3,5,5 Trimethylhexanonanoate [Dermol 139]  24.5 mN/m
7. CCCCCCCCCCC(CO)CCCCCCCC (stereo not drawn) [Eutanol G, Octyldodecanol]  24.8 mN/m
8. CCCCC(CC)C(=O)OCCC(C)CC(C)(C)C (stereo not drawn) [Dermol 98, 2-Ethylhexanoic acid 3,5,5-Trimethyl ester]  26.2 mN/m
9. CC(C)CCCCCCCOC(=O)CC(C)CC(C)(C)C (stereo not drawn) [Dermol 109, Isodecyl 3,5,5 Trimethyl Hexanoate]  29.1 mN/m
10. CCCCCCOCCCCCC [Dihexyl Ether]  29.2 mN/m
11. CCCCCCCC(=O)OCCCCCCCC(C)C [Dermol 108, Isodecyl Octanoate]  29.6 mN/m
12. CCCCCCCCCC(=O)OCCCC(C)C [Dermol IHD, Isohexyl decanoate]  29.7 mN/m
13. CC(C)CCCCCCCOC(=O)C(C)(C)C [DUB VCI 10, Isodecyl Neopentanoate]  29.9 mN/m

Same assay, conditions: nonpolar lipids

In order of rising Polarity:
1. CCCCCCCC(=O)OC(=O)CCCCCCC [Cetiol OE, Dicaprylyl Ether]  30.9 mN/m
2. CCCCCCOC(=O)OCCCCCC [Dihexyl carbonate, Dihexyl Carbonate]  30.9 mN/m
3. CCCCC(CC)COC(=O)CCCCCC(C)C (stereo not drawn) [Dermol 89, 2-Ethylhexyl Isononanoate]  31.0 mN/m
4. CC(CCOC(=O)CC(C)CC(C)(C)C)CC(C)(C)C (stereo not drawn) [Dermol 99, Trimethylhexyl Isononanoate]  31.1 mN/m
5. CCCCCCCCOC(=O)CCCCCCCCCCCCCCC(C)C [Prisorine 2036, Octyl Isostearate]  31.6 mN/m
6. O1[SiH2]O[SiH2]O[SiH2]O[SiH2]O[SiH2]1 (stereo not drawn) [Dow Corning Fluid 245, Cyclopentasiloxane]  32.3 mN/m
7. Isocetyl Palmitate [Tegosoft HP]  36.2 mN/m
8. Dioctylcyclohexane [Cetiol S]  39.0 mN/m
9. CCCCCCCC/C=C\CCCCCCCC(=O)OCCOCCOCC [Softcutol O, Ethoxydiglycol Oleate]  40.5 mN/m
10. CCCCCCCCCCCCCCCCCC(C)C [Isoeicosane]  41.9 mN/m
11. CCCCCCCCCCCCCC(C)C [Solvent ICH, Isohexadecane]  43.8 mN/m

Same assay, conditions: polar lipids

In order of rising Polarity:
1. Triisostearin [Prisorine 2041 GTIS]  2.4 mN/m
2. CC(C)CCCCCCCCCCCCCCC(=O)O.CC(O)CO [Emerest 2384, Propylene Glycol Monoisostearate]  6.2 mN/m
3. PEG 2 Diethylene hexanoate [Dermol 488]  10.1 mN/m
4. CCCCOC(=O)CCCCC(=O)OCCCC [Cetiol B, Dibutyl Adipate]  14.3 mN/m
5. CCCCCCCCCCCCCCCCCCOC(=O)CCCCCC [Tegosoft SH, Stearyl Heptanoate]  17.8 mN/m

Same assay, conditions: silicone oils

`O1[SiH2]O[SiH2]O[SiH2]O[SiH2]O[SiH2]1` (stereo not drawn) [Dow Corning Fluid 245, Cyclopentasiloxane] gave a Polarity of 32.3 mN/m.

Test system: insects
Assay: not given
Conditions: cited from earlier work

For `CCN(CC)C(=O)c1cccc(C)c1` [DEET, N,N-diethyl-3-methylbenzamide], the “effective against (pests repelled)” value is listed as “mosquitoes, horse-flies, sand-flies, ticks, biting flies, mites, fleas and bugs”.
In the case of `COC(=O)c1ccccc1C(=O)OC` [Dimethyl phthalate], the “effective against (pests repelled)” value is listed as “mosquitoes (in particular Aedes and Anopheles species)”.
In the case of `CCCCN(CCC(=O)OCC)C(C)=O` [Repellent 3535, ethyl 3-(N-n-butyl-N-acetylamino)propionate], the “effective against (pests repelled)” value is listed as “mosquitoes (Aedes aegypti, Anopheles albimanus), tsetse flies (Glossinae) and horse-flies (Tabanidae)”.

Same assay, conditions: pests repelled, table of further repellents; cited from earlier work

For `O=CC12CC=CCC1C1CC=CCC1O2` (stereo not drawn) [2,3;4,5-bis(2-Butylene)tetrahydro-2-furaldehyde], the “Effectiveness (literature and manufacturer details)” value (“Effectiveness” below) is listed as “cockroaches and biting insects^1”.
In the case of `CCCC(O)C(CC)CO` (stereo not drawn) [2-Ethylhexane-1,3-diol], the “Effectiveness” value is listed as “mosquitoes, horse-flies, flies, fleas, mites^1”.
For `COC(=O)C1C2C=CC(C2)C1C(=O)OC` (stereo not drawn) [Dimethyl carbate], the “Effectiveness” value is given as “mosquitoes, in particular of the Aedes species^1”.
For `CCCCCCCC(=O)N(CC)CC` [N,N-Diethyl caprylamide], the “Effectiveness” value is given as “cockroaches, mosquitoes, house files, horse-flies, ants, arachnids”.
In the case of `CCCCC(CC)CN1C(=O)C2C3C=CC(C3)C2C1=O` (stereo not drawn) [N-Octylbicycloheptenedicarboximide], the “Effectiveness” value is given as “synergist^2”.
For `CCCCOCCOCCOCc1cc2c(cc1CCC)OCO2` [Piperonyl butoxide], the “Effectiveness” value is listed as “synergist^2”.

Source: patent US20070079447A1, “Insect repellent textile” (Beiersdorf AG, priority 2003, published 2007)
